Test results from ChEMBL document CHEMBL5154671 (Eur J Med Chem, 2022).
Calls of active or inactive are those of the source. The calls are words filed in the database; no cut-off is given here.

Legend:
[1] = tested on: Mus musculus; test: Hypolipidemic activity in Triton1339W-induced hyperlipidemic ICR mouse model assessed as reduction in plasma TC level at 80 mg/kg, administered once daily for 5 days; assay type: functional, organism-based; details: time 5.0 day
[2] = biological target: T1, Peroxisome proliferator-activated receptor alpha (Homo sapiens, UniProt Q07869); test: Agonist activity at human PPARalpha measured by dual luciferase reporter gene assay
T1 sequence (Q07869 whole entry): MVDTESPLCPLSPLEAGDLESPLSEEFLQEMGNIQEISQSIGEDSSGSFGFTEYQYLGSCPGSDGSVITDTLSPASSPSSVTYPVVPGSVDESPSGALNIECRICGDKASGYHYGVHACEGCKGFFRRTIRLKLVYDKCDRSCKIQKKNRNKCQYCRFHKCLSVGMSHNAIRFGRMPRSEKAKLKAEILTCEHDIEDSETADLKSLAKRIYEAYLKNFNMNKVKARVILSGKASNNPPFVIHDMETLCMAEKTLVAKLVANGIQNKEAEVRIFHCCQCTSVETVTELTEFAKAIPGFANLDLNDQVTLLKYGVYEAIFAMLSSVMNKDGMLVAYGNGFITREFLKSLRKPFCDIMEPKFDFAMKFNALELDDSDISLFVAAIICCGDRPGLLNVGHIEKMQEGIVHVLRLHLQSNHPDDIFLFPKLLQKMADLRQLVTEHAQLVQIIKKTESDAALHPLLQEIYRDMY

[3] = biological target: T2, Peroxisome proliferator-activated receptor gamma (Homo sapiens, UniProt P37231); test: Agonist activity at human PPARgamma measured by dual luciferase reporter gene assay
T2 sequence (P37231 whole entry): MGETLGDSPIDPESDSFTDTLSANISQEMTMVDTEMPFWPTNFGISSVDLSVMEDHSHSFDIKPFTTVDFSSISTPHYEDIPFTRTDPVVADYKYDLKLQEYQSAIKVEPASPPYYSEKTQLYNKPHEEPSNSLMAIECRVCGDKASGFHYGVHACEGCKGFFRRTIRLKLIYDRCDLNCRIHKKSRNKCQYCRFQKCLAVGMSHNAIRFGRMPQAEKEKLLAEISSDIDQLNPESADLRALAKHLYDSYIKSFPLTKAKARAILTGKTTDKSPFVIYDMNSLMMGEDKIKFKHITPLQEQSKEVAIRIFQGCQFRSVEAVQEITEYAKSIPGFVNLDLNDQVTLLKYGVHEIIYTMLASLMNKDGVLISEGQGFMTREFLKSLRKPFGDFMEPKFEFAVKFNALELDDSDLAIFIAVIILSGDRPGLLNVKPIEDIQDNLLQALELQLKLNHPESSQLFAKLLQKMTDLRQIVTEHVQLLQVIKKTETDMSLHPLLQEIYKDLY

[4] = tested on: Mus musculus; test: Hypolipidemic activity in Triton1339W-induced hyperlipidemic ICR mouse model assessed as reduction in plasma TG level at 80 mg/kg, administered once daily for 5 days; assay type: functional, organism-based; details: time 5.0 day
[5] = biological target: T3, Peroxisome proliferator-activated receptor delta (Homo sapiens, UniProt Q03181); test: Agonist activity at human PPARdelta measured by dual luciferase reporter gene assay
T3 sequence (Q03181 whole entry): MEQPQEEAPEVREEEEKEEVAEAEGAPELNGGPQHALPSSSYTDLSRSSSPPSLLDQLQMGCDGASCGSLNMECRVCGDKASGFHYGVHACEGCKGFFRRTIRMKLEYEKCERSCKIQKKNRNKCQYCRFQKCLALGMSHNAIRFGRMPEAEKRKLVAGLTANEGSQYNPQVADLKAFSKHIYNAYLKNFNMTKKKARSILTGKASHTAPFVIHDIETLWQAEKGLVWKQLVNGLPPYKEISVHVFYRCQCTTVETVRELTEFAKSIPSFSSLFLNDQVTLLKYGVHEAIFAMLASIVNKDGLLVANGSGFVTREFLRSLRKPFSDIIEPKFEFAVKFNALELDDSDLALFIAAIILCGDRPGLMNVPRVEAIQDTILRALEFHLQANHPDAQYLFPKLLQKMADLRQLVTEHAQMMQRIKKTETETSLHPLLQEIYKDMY

[6] = Half-life in rat liver microsomes in presence of NADPH measured by LC/MS analysis; assay type: ADME, Microsome
[7] = tested on: Mus musculus; test: Anti-NASH activity in high-fat/high-sugar diet and CCl4-induced nonalcoholic steatohepatitis male C57BL/6 mouse assessed as decrease in F4/80 expression at 100 mg/kg, po administered for 4 weeks; assay type: functional, organism-based
[8] = tested on: Mus musculus; test: Anti-NASH activity in high-fat/high-sugar diet and CCl4-induced nonalcoholic steatohepatitis male C57BL/6 mouse assessed as decrease in lobular inflammation score at 100 mg/kg, po administered for 4 weeks; assay type: functional, organism-based
[9] = tested on: Mus musculus; test: Anti-NASH activity in high-fat/high-sugar diet and CCl4-induced nonalcoholic steatohepatitis male C57BL/6 mouse assessed as decrease in hepatocyte ballooning score at 100 mg/kg, po administered for 4 weeks; assay type: functional, organism-based
[10] = tested on: Mus musculus; test: Anti-NASH activity in high-fat/high-sugar diet and CCl4-induced nonalcoholic steatohepatitis male C57BL/6 mouse assessed as decrease in disease activity score at 100 mg/kg, po administered for 4 weeks; assay type: functional, organism-based
[11] = tested on: Mus musculus; test: Protection against liver fibrosis in high-fat/high-sugar diet and CCl4-induced nonalcoholic steatohepatitis male C57BL/6 mouse assessed as decrease in collagen area at 100 mg/kg, po administered for 4 weeks; assay type: functional, organism-based
[12] = Clearance in rat liver microsomes in presence of NADPH measured by LC/MS analysis; assay type: ADME, Microsome; details: read-out: CLH
[13] = tested on: Mus musculus; test: Anti-fibrotic activity in high-fat/high-sugar diet and CCl4-induced nonalcoholic steatohepatitis male C57BL/6 mouse assessed as decrease in COL1A1 mRNA expression at 100 mg/kg, po administered for 4 weeks; assay type: functional, organism-based
[14] = biological target: Free fatty acid receptor 1 (Homo sapiens, UniProt O14842); test: Agonist activity at human FFA1 expressed in CHO cells measured by FLIPR assay; assay type: functional, cell-based
Sequence of Free fatty acid receptor 1 (O14842 whole entry): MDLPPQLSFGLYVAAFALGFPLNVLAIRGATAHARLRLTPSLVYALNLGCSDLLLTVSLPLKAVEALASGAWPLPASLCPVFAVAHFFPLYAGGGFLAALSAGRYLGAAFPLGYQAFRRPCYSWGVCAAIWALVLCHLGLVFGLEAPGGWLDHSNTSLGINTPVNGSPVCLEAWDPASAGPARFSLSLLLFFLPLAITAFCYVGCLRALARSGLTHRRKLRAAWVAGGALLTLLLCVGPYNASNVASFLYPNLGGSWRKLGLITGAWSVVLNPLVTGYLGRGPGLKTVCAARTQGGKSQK

[15] = tested on: Mus musculus; test: Protection against liver fibrosis in high-fat/high-sugar diet and CCl4-induced nonalcoholic steatohepatitis male C57BL/6 mouse assessed as decrease in alpha-SMA expression in liver at 100 mg/kg, po administered for 4 weeks; assay type: functional, organism-based
[16] = tested on: Mus musculus; test: Protection against CCl4-induced liver fibrosis in male C57BL/6 mouse assessed as decrease in collagen area in liver at 250 mg/kg measured by masson staining; assay type: functional, organism-based
[17] = tested on: Mus musculus; test: Protection against CCl4-induced liver fibrosis in male C57BL/6 mouse assessed as decrease in hepatic hydroxyproline content at 250 mg/kg […]; assay type: functional, organism-based

Row | Compound | EC50 [2] | EC50 [3] | EC50 [5] | EC50 [14] | Activity [1] | Activity [4] | other results
1 | COc1ccc(/C=C/c2cc(OC)cc(OCCCCCCCC(=O)O)c2)cc1 | 7.5 µM | 25.8 µM | 6.5 µM | 1.8 µM | Active | Active | half-life [6]: 19.3 min; Activity [7]: Active; Activity [8]: Active; Activity [9]: Active; Activity [10]: Active; Activity [11]: Active; microsomal CLint [12]: 72 µL/min/mg; Activity [13]: Active; Activity [15]: Active
2 | Cc1ccc(=O)n(-c2ccccc2)c1 |  |  |  |  |  |  | Activity [16]: Active; Activity [17]: Active
3 | COc1ccc(/C=C/c2cc(OC)cc(OCc3ccc(OCC(=O)O)cc3)c2)cc1 | 20.8 µM | 15.6 µM | 8.75 µM | 10.3 µM | Active | Active | 
4 | COc1ccc(-c2cccc(OCc3ccc(OCC(=O)O)c(F)c3)c2)cc1 |  |  |  | 0.4 µM | Active |  | 
5 | COc1ccc2cc(-c3cccc(OCc4ccc(OCC(=O)O)c(F)c4)c3)ccc2c1 | 10.5 µM |  | 7.8 µM |  |  |  | 
6 | CCOc1ccc(/C=C/c2cc(OCC)cc(OCc3ccc(OCC(=O)O)c(F)c3)c2)cc1 | 12.9 µM | 22.6 µM | 5.7 µM | 4.2 µM | Active | Active | 

Now from value to molecule, other results behind:

Row | EC50 [2] | EC50 [3] | EC50 [5] | EC50 [14] | Compound | Activity [1] | Activity [4] | other results
7 | 2.35 µM | 20.6 µM | 2.8 µM |  | COc1ccc(/C=C/c2cc(OC)cc(OCc3ccc(OC(C)(C)C(=O)O)c(F)c3)c2)cc1 | Active | Active | 
8 | 9.6 µM |  | 7.2 µM |  | O=C(O)COc1ccc(COc2cccc(-c3ccc4cc(OCC5CC5)ccc4c3)c2)cc1F |  |  | 
9 | 7.6 µM | 20.7 µM | 5.16 µM |  | COc1ccc(/C=C/c2cc(OC)cc(OCc3ccc(OCC(=O)O)c(C)c3)c2)cc1 | Active | Active | 
10 | 15.6 µM |  | 10.8 µM |  | COc1ccc2ccc(-c3cccc(OCc4ccc(OCC(=O)O)c(F)c4)c3)cc2c1 |  |  | 
11 | 10.8 µM |  | 20.8 µM | 6.8 µM | O=C(O)COc1ccc(COc2cccc(-c3nc4cc(Cl)ccc4o3)c2)cc1F |  |  | 
12 | 10.3 µM | 24.5 µM | 8.37 µM |  | O=C(O)COc1ccc(COc2cc(/C=C/c3ccc(OCC4CC4)cc3)cc(OCC3CC3)c2)cc1F | Active | Active | 
13 | 6.3 µM | 10.2 µM |  |  | Cc1ccc2[nH]c(-c3cccc(OCCCCCCCC(=O)O)c3)nc2c1 |  |  | 
14 | 8.72 µM | 18.2 µM | 4.5 µM |  | COc1ccc(/C=C/c2cc(OC)cc(OCc3ccc(OC(C)C(=O)O)c(F)c3)c2)cc1 (stereo not given) | Active | Active | 
15 | 7.8 µM |  | 10.2 µM | 2.1 µM | O=C(O)COc1ccc(COc2cccc(-c3nc4ccccc4s3)c2)cc1F |  |  | 
